For test [1], the target named is N-terminal GST tagged recombinant human RET cytoplasmic domain (aa 658-end), wild type RET kinase (Homo sapiens (Human), UniProt P07949). Description: RET Enzyme Assay (HTRF KinEASE-TK), wild type RET. In kind it is biochemical. For orientation: TR-FRET usually uses a lanthanide donor and a delayed reading to cut background.
Test [2] addresses Kif5b-RET fusion protein in HEK-293 cells (Homo sapiens, UniProt P07949). Description: cell-based.
Test [3] deals with human KDR protein in HEK-293 cells (Homo sapiens (Human), UniProt P35968). Description: KDR Cell Assay (phospho-KDR in HEK-293 cells expressing inducible KDR). The format is cell-based. The note with it: pKDR Cell HEK 10% FBS IC50, HEK-293 cells expressing inducible KDR, VEGF stimulated. The method in brief:
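HEK-293 cells with inducible human KDR were treated with compound for 1 h in DMEM (0.25% DMSO final), then lysed. Phospho-KDR was quantified by Meso Scale immunoassay, expressed as percent of control, and IC50 taken where a 4-parameter logistic fit crossed 50 POC.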

[4] abbreviates: HEK-293 cells expressing Kif5b-RET, phospho-RET(Tyr1062), read-out: KIF5B-RET pTYR1062 Cell IC50.
Where [5] appears, read: HEK-293 cells expressing Kif5b-RET, read-out: KIF5B-RET pTYR1062 Cell IC50.

Counter-ions that a name gives are not always drawn. Like-named read-outs stand apart in the source and are kept apart here.

Kif5b-RET fusion protein in HEK-293 cells, sequence (P07949 29-1114 limits assumed): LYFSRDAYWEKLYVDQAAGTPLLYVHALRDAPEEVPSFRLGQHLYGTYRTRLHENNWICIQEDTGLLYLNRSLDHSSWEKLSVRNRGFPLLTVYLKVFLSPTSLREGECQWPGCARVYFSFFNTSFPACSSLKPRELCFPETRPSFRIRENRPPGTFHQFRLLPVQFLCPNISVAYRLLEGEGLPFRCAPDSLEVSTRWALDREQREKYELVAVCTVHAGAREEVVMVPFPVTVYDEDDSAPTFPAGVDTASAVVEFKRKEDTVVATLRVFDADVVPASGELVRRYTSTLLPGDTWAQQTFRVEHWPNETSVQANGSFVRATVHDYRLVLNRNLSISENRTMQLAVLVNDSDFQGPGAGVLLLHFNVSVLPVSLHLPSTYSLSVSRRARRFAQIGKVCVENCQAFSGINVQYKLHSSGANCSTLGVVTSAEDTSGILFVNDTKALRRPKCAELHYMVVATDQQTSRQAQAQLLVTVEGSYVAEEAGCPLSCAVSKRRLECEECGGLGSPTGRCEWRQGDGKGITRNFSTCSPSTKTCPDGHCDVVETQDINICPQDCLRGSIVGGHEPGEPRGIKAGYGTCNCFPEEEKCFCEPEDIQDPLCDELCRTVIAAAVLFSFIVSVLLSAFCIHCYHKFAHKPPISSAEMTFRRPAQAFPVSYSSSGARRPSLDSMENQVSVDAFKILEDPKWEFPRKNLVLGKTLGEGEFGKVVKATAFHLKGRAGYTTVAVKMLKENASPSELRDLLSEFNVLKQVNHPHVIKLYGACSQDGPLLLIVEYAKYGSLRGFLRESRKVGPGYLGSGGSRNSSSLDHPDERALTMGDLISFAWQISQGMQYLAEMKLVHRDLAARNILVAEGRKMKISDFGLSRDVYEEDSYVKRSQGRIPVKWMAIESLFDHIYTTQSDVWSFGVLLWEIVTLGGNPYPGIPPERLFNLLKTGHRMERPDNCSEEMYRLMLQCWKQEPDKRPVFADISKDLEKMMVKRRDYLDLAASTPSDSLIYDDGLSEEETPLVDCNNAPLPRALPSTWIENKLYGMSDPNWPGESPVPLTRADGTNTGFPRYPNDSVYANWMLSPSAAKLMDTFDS
human KDR protein in HEK-293 cells, sequence (P35968 20-1356): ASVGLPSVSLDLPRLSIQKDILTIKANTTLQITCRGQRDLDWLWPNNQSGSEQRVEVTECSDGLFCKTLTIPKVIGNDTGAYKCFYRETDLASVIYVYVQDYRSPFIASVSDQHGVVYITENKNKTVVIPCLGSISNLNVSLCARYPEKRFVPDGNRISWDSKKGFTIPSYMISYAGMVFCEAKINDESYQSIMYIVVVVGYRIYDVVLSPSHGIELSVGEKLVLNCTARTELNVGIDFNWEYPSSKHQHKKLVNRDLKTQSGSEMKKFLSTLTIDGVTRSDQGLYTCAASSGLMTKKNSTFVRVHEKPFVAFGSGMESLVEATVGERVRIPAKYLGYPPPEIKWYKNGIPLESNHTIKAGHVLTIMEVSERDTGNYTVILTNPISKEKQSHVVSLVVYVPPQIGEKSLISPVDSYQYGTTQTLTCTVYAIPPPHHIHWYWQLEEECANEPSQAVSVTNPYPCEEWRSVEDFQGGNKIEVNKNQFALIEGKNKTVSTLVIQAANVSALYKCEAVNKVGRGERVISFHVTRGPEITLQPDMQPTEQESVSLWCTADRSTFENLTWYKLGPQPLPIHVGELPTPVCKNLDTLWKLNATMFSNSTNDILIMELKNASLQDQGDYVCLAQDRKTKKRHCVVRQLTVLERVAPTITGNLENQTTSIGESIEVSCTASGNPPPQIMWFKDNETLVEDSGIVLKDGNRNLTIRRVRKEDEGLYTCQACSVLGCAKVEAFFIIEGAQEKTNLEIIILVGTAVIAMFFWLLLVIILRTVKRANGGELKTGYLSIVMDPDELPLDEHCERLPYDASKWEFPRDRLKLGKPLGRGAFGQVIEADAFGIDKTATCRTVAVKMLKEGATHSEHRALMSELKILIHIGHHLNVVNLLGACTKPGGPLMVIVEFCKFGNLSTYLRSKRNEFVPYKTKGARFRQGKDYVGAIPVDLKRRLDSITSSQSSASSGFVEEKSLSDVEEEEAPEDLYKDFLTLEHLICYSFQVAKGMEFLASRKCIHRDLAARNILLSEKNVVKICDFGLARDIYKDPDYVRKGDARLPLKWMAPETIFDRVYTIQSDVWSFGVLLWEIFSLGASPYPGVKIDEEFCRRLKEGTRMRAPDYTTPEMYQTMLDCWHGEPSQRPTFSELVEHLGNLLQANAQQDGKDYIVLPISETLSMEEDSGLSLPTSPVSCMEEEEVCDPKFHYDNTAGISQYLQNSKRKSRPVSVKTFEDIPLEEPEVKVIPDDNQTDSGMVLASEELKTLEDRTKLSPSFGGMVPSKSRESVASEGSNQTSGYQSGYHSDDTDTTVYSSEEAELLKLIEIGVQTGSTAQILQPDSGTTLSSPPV
N-terminal GST tagged recombinant human RET cytoplasmic domain (aa 658-end), wild type RET kinase, sequence (P07949 658-1114): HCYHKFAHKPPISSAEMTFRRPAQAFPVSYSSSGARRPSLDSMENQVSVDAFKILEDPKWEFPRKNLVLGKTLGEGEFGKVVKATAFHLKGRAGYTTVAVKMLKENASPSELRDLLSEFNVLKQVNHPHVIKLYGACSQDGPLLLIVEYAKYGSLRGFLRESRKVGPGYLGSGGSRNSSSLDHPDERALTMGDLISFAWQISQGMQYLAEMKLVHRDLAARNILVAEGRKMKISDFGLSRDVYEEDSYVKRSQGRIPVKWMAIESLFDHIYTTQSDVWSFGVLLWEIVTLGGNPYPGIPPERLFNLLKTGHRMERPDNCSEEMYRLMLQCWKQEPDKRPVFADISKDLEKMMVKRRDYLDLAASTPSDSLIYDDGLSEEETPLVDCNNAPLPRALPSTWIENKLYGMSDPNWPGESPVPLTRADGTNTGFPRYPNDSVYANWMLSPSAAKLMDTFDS

On to `Cn1cc(-c2cc(-c3ccc(N4CCNCC4)nc3)c3c(Cl)cnn3c2)cn1` [Example 326, 3-chloro-6-(1-methyl-1H-pyrazol-4-yl)-4-(6-(piperazin-1-yl)pyridine-3-yl)pyrazolo[1,5-a]pyridine dihydrochloride], for which the IC50 – broadly, the concentration that inhibits the measured activity by half – in test [1] (wild type RET, 1 mM ATP) was 75 nM; in test [2] (read-out: KIF5B-RET pTYR1062 Cell IC50), 70.4 nM; in test [3] (10% FBS), 579 nM.
For the molecule `Cn1cc(-c2cc(-c3ccc(N4CCNCC4)nc3)c3c(C#N)cnn3c2)cn1` [Example 2, 6-(1-methyl-1H-pyrazol-4-yl)-4-(6-(piperazin-1-yl)pyridin-3-yl)pyrazolo[1,5-a]pyridine-3-carbonitrile dihydrochloride], the IC50 in test [1] is 19.6 nM; in test [2] (setting [4]), 111 nM; in test [3] (10% FBS), 1080 nM.
On to `Cn1cc(-c2cc(-c3ccc(N4CCN(C(=O)C(C)(C)O)CC4)nc3)c3c(C#N)cnn3c2)cn1` [Example 31, 4-(6-(4-(2-hydroxy-2-methylpropanoyl)piperazin-1-yl)pyridin-3-yl)-6-(1-methyl-1H-pyrazol-4-yl)pyrazolo[1,5-a]pyridine-3-carbonitrile], for which the IC50 in test [1] (wild type RET, 1 mM ATP) was 36.7 nM; in test [2] (setting [4]), 76.1 nM; in test [3] (10% FBS) it was 2550 nM.
For `CC(C)C(=O)N[C@@H]1CCCN(c2ccc(-c3cc(-c4cnn(C)c4)cn4ncc(C#N)c34)cn2)C1` [Example 226, (R)—N-(1-(5-(3-cyano-6-(1-methyl-1H-pyrazol-4-yl)pyrazolo[1,5-a]pyridin-4-yl)pyridin-2-yl)piperidin-3-yl)isobutyramide], in that order: 31.8 nM, 57.1 nM and 1170 nM.
In the same order, the values of `CC(C)C(=O)NC1CCN(c2ccc(-c3cc(-c4cnn(C)c4)cn4ncc(C#N)c34)cn2)CC1` [Example 185, N-(1-(5-(3-cyano-6-(1-methyl-1H-pyrazol-4-yl)pyrazolo[1,5-a]pyridin-4-yl)pyridin-2-yl)piperidin-4-yl)isobutyramide] are 11.5 nM, 14.3 nM and 628 nM.
On to `COc1ncc(F)cc1CN1CCN(c2ccc(-c3cc(-c4cnn(C)c4)cn4ncc(C#N)c34)cn2)CC1` [Example 457, 4-(6-(4-((5-fluoro-2-methoxypyridin-3-yl)methyl)piperazin-1-yl)pyridin-3-yl)-6-(1-methyl-1H-pyrazol-4-yl)pyrazolo[1,5-a]pyridine-3-carbonitrile], for which the IC50 is 13.1 nM in test [1] (wild type RET, 1 mM ATP); 19.5 nM in test [2] (setting [5]); 877 nM in test [3].
As for `CC(C)n1cc(-c2cc(-c3ccc(N4CCN(Cc5ccccc5)CC4)nc3)c3c(C#N)cnn3c2)cn1` [Example 611, 4-(6-(4-benzylpiperazin-1-yl)pyridin-3-yl)-6-(1-isopropyl-1H-pyrazol-4-yl)pyrazolo[1,5-a]pyridine-3-carbonitrile], the IC50 in test [1] (wild type RET, 1 mM ATP) is 11.9 nM; in test [2] it was 2.5 nM; in test [3], 298 nM.
As to `CC(C)CC(=O)N1CCN(c2ccc(-c3cc(-c4cnn(C)c4)cn4ncc(Cl)c34)cn2)CC1` [Example 646, 1-(4-(5-(3-chloro-6-(1-methyl-1H-pyrazol-4-yl)pyrazolo[1,5-a]pyridin-4-yl)pyridin-2-yl)piperazin-1-yl)-3-methylbutan-1-one], the IC50 in test [1] (wild type RET, 1 mM ATP) turned out to be 15.6 nM; in test [2] (setting [5]) it was 45.7 nM; in test [3], 1960 nM.

The record behind these values is patent US10023570B2 (Array BioPharma, Inc., priority 2015, dated 2018).
